Experimental data published in patent publication US4714619A, “Aminomalonyl alanine compounds as dietary sweeteners” (priority 1986, dated 1987).
“Also recorded” adds a separate entry of the source. Read-outs that look alike come from different tables or passages of the source.

What was measured:
[1] = Stability in aqueous solution (hplc, ambient temperature); assay type: physicochemical; details: for degraded at 864 h: 0.05m phosphate buffer, ambient temperature, read-out: degradation
Description: Stability was examined in aqueous solution at various pHs. Solutions (1% w/v) were prepared in 0.05M phosphate buffer adjusted to pH 7.4 and pH 3.5. Storage at ambient temperature over 36 days was monitored by hplc analysis (waters radial-pak reverse phase C-8 column, 25% CH3 CN, 0.05% TFA/H2 O eluant, 210 nm U.V. detection). Aspartame was examined similarly for comparison purposes.

[2] = Acute oral toxicity testing; assay type: in vivo, Swiss male mice
Description: The isopropyl ester was evaluated for acute oral toxicity in Swiss male mice. The testing parameters were as follows: each test group contained six mice (20-30 grams each); the isopropyl ester was administered in an aqueous solution as a single oral dose of 100 mg/kg and 300 mg/kg; two solvent controls were also administered; the mice were again given food two hours after sample administration.
Body weights were measured on day -3, 0, +7 and +14. Physiological parameters were examined the entire first day, then three times a day through the first week and twice a day for the second week. Blood serum analyses for urea nitrogen and alanine aminotransferase activities were measured on day -3 and day +14. On day 14, a gross necropsy was performed on each mouse.
Blood samples were collected from the tail vein for biochemical testing of serum samples. This procedure virtually eliminated hemolyzed samples.

[3] = Taste panel (Table 1, FIG. 2); details: for After Taste? (average score) / Bitter? (average score) / Off Taste? (average score) / Pleasant? (average score) / Salty? (average score) / Sweet? (average score): normalized to 100
[4] = Comparative taste test, D- versus L-configuration (Table 2, FIG. 3); design: Sweet? (average score) / Bitter? (average score) / Salty? (average score) / Off Taste? (average score) / After Taste? (average score): scale not given here
Description: The compounds were dissolved in distilled water at the concentrations specified in Table 2. Solutions were made up and kept overnight in a refrigerator. The following day, they were poured into individual graduated plastic cups (10 ml per cup) and allowed to warm to room temperature. A taste panel was convened and testing begun that same day. Tasting and evaluation was done by the standard protocol developed by Dr. Robert Gesteland of Taste and Smell Consulting Group, Inc.
The first solution tasted (reference standard for the panel) was 0.25M sucrose. Other solutions were tasted in radomized fashion. The random order was arrived at as follows:
i. An ordered list of the compounds and concentrations was prepared (26 solutions in all).
ii. 0.25M sucrose was designated as 1.
iii. A standard table of random numbers was used in which the numbers were grouped as two-digit numbers. A point in the table was chosen at random (blind pointing). The first solution in the list was given the first random number in the sequence (read right-to-left, up-to-down) which is between 2 and 26. The second solution in the list was given the next random number in the sequence between 2 and 26, etc. Repeat numbers were ignored.
iv. Solutions were then labeled A (for number 1) B (for random number 2), C-Z.
v. Panelists were instructed to taste the solutions in alphabetical order.
With the assistance of Taste and Smell Consulting Group, Inc., taste panel members were trained adn tested for their ability to discriminate sucrose solutions of varying concentrations. In summary it may be stated that all 9 panel members had acceptble correlation scores. Their results were in good agreement with those which have been previously reported in siilar types of studies. For the test series the correlations for each panelist for sucrose and aspartame were acceptable as were the overall results obtained by averaging individual scores. The results of the taste panel are set forth in Table 2 wherein the parenthetical figures represent the standard error values for the number above.

five Salmonella strains = assay: Ames/Salmonella mutagenicity assay; assay type: cell-based; details: 0.3-3000 ug/plate, with and without S9; toxicity at the two highest doses
Description: The isopropyl ester was tested for mutuagenic potential in the Ames assay employing: (1) five Salmonella strains which detect frameshift mutagens or base-pair substitution mutagens, (2) both the presence and absence of mammalian S9 microsomal liver fraction as the metabolic activator, which differentiate promutagens from direct-acting mutagens, (3) five dose levels (3000, 300, 30, 3, 0.3 ug/plate), and (4) three plates per dose. The compound was also tested for toxicity, with and without S9 activation, at the two highest doses. […] Positive controls and spontaneous background revertants were within acceptable ranges.

[5] = neonatal mice; cited from earlier work
[6] = monkeys; cited from earlier work
[7] = cited from earlier work
[8] = single oral dose 100 and 300 mg/kg, 14 days

## CC(C)OC(=O)[C@@H](C)NC(=O)C(N)C(=O)O (mixture of isomers) [Compound (8), DL-Aminomalonyl-D-Alanine Isopropyl Ester]
[1]; pH 3.5, 36 days
  degraded at 864 h: < 5%
  improvement in stability relative to aspartame: ten fold improvement in stability
[1]; pH 7.4 buffer, 36 days
  degraded at 864 h: 70%
[2]; day 14, 100 and 300 mg/kg oral
  gross necropsy: No toxic effects were detected
[2]; from serum urea nitrogen and alanine aminotransferase, 100 and 300 mg/kg oral
  kidney and liver toxicity: absence of kidney and liver toxicity
[2]; post-study samples, 100 or 300 mg/kg oral
  serum urea nitrogen and alanine aminotransferase activity: Neither elevated serum urea nitrogen nor elevated alanine aminotransferase activity were detected
[2]; single oral dose 100 and 300 mg/kg
  behavioral or pharmacological effects: no behavioral or pharmacological effects were observed
[2]; single oral dose 100 and 300 mg/kg, 14-day study
  body weights: normal
[2]; [8]
  acute oral toxicity: no toxic effect; also recorded: nontoxic at all doses tested
  eating or drinking: no excessive eating or drinking
[3]; 0.8621 Millimolar
  After Taste? (average score): 4
  Bitter? (average score): 7
  Off Taste? (average score): 13
  Pleasant? (average score): -11
  Salty? (average score): 21
  Sweet? (average score): 4
[3]; 3.0172 Millimolar
  After Taste? (average score): 6
  Bitter? (average score): 3
  Off Taste? (average score): 2
  Pleasant? (average score): 13
  Salty? (average score): 5
  Sweet? (average score): 32
[3]; 9.0517 Millimolar
  After Taste? (average score): 4
  Bitter? (average score): 1
  Off Taste? (average score): 3
  Pleasant? (average score): 34
  Salty? (average score): 3
  Sweet? (average score): 61
[3]; compared to saccharin
  aftertaste / side tastes: does not possess a "metallic" aftertaste, and there are virtually no detracting side tastes
[3]; sucrose=1.0, weight scale
  sweetness potency (reciprocal of concentration required for a score of 50): 58
[3]; taste panel
  onset and decay of sweet taste: rapid onset and a rapid decay of sweet taste
  taste quality: uncommon sucrose-like sweet taste that is free of detracting side and after tastes; also recorded: sweet and pleasant
[3]; weight basis
  sweetness relative to aspartame: about half as sweet as aspartame
  times sweeter than sucrose: 58 times
[4]
  sweet taste (words): sweet
[4]; 0.0431 Millimolar
  After Taste? (average score): 0
  Bitter? (average score): 1
  Off Taste? (average score): 2
  Pleasant? (average score): 15
  Salty? (average score): 1
  Sweet? (average score): 2
[4]; 0.4307 Millimolar
  After Taste? (average score): 7
  Bitter? (average score): 12
  Off Taste? (average score): 8
  Pleasant? (average score): 10
  Salty? (average score): 11
  Sweet? (average score): 1
[4]; 4.3066 Millimolar
  After Taste? (average score): 5
  Bitter? (average score): 0
  Off Taste? (average score): 3
  Pleasant? (average score): 24
  Salty? (average score): 12
  Sweet? (average score): 28
Five Salmonella strains
  mutagenic potential and toxicity in Ames assay: neither mutagenic potential nor toxicity

## N[C@@H](CC(=O)O)C(=O)O [aspartic acid]
[5]
  brain lesions: causes brain lesions in neonatal mice

## N[C@@H](Cc1ccccc1)C(=O)O [phenylalanine]
[6]
  grand mal-type seizures: reported to induce grand mal-type seizures in monkeys
[7]; in vivo
  behavioral changes and brain chemistry: induce behavioral changes, and alter brain chemistry
[7]; pregnant women with phenylketonuria
  birth defects: produce birth defects in pregnant women with phenylketonuria
